From patent US11597702B2, “Substituted pyrazoles FFA4/GPR120 receptor agonists” (AXXAM S.P.A., priority 2018, dated 2023)

Biological target: T1, GPR120 (Homo sapiens, UniProt Q5NUL3)
T1 construct: expressed in transfected cells; host or cells: CHO mitoPhotinaGPR120 cells
T1 sequence (Q5NUL3 1-361): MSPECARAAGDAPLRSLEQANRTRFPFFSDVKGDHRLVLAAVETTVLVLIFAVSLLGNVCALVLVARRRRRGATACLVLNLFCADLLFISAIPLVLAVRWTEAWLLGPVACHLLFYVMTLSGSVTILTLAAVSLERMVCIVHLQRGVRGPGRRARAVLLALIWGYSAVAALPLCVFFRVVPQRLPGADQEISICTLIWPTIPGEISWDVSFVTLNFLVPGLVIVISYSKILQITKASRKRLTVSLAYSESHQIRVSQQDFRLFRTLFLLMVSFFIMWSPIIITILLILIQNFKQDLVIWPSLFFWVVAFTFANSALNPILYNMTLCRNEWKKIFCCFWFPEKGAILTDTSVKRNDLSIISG
Test: GPR120 agonism in CHO mitoPhotinaGPR120 cell based assay with fluorescent (Fluo-8 calcium, FLIPRTetra) readout, Agonist Mode, dose response
Conditions: CHO mitoPhotinaGPR120 cells, Fluo-8 No Wash Ca2+ dye, dose response in quadruplicate, 0.0033% fatty acid free BSA

CCc1ccc(-n2nc(C)c(C#N)c2COc2c(F)cc(CCCO)cc2F)cc1 [Example 160, 5-[[2,6-difluoro-4-(3-hydroxypropyl)phenoxy]methyl]-1-(4-ethylphenyl)-3-methyl-pyrazole-4-carbonitrile]
EC50: 0.3 µM

COc1ccc(-n2nc(C)c(C#N)c2COc2c(F)cc(CCCO)cc2F)cc1 [Example 161, 5-[[2,6-difluoro-4-(3-hydroxypropyl)phenoxy]methyl]-1-(4-methoxyphenyl)-3-methyl-pyrazole-4-carbonitrile]
EC50: 0.23 µM

Cc1nn(-c2ccc(Cl)cc2)c(COc2c(F)cc(CCCO)cc2F)c1C#N [Example 162, 1-(4-chlorophenyl)-5-[[2,6-difluoro-4-(3-hydroxypropyl)phenoxy]methyl]-3-methyl-pyrazole-4-carbonitrile]
EC50: 0.43 µM

Cc1nn(C2CCCC2)c(COc2c(F)cc(CCCO)cc2F)c1C#N [Example 163, 1-cyclopentyl-5-[[2,6-difluoro-4-(3-hydroxypropyl)phenoxy]methyl]-3-methyl-pyrazole-4-carbonitrile]
EC50: 0.099 µM

Cc1nn(-c2ccc(F)cn2)c(COc2c(F)cc(CCCO)cc2F)c1C#N [Example 164, 5-[[2,6-difluoro-4-(3-hydroxypropyl)phenoxy]methyl]-1-(5-fluoro-2-pyridyl)-3-methyl-pyrazole-4-carbonitrile]
EC50: 0.19 µM

Cc1ccc(-n2nc(C)c(C#N)c2COc2c(F)cc(CCCO)cc2F)nc1 [Example 165, 5-[[2,6-difluoro-4-(3-hydroxypropyl)phenoxy]methyl]-3-methyl-1-(5-methyl-2-pyridyl)pyrazole-4-carbonitrile]
EC50: 0.17 µM

Cc1nn(-c2ccc(Cl)cn2)c(COc2c(F)cc(CCCO)cc2F)c1C#N [Example 166, 1-(5-chloro-2-pyridyl)-5-[[2,6-difluoro-4-(3-hydroxypropyl)phenoxy]methyl]-3-methyl-pyrazole-4-carbonitrile]
EC50: 0.22 µM

COc1ccc(-n2nc(C)c(C#N)c2COc2c(F)cc(CCCO)cc2F)nc1 [Example 167, 5-[[2,6-difluoro-4-(3-hydroxypropyl)phenoxy]methyl]-1-(5-methoxy-2-pyridyl)-3-methyl-pyrazole-4-carbonitrile]
EC50: 0.21 µM

COc1ccc(S(=O)(=O)Nc2c(C)cc(C)cc2C)cc1 [GSK137639A, reference compound]
EC50: 4.48 µM
